MyoD reporter activity data for 2 substances are collected here from patent US20250250545A1, “MSCS AND EXTRACELLULAR VESICLES” (EXOSTEM BIOTEC LTD., priority 2021, published 2025).

The assay relates to AD-MSCs. Nature of the assay: MyoD reporter (luciferase) in AD-MSCs, myogenic differentiation. It is filed as cell-based, human. To be noted: 10^8 EVs per ml, with or without IGF, HGF, PDGF, versus untreated control. As for the experimental part: The effects of muscle cell derived extracellular vesicles (EVs) on the myogenic differentiation of MSCs was analyzed using a myoD reporter tagged to luciferase. Human satellite cells, myotubes and fibroblasts were grown in culture and EVs were isolated from each. MSCs were isolated from adipose tissue (AD-MSCs) and were transfected with the MyoD reporter. The cells grown in culture were treated with EVs (10^8/ml) for 5 days and the luciferase activity was determined. […] Thus, the vesicles from these two cell types are effective at inducing myogenic differentiation.
Next, EVs were compared to the use of growth factors and the effect of combining EVs with growth factors on myogenic differentiation was tested. The same MyoD reporter was employed and MSCs were cultured with 10^8 EVs (from satellite cells or fibroblasts) per ml of culture media. A no EV control was also performed. The EVs were also added in the presence of three different growth factors, IGF, HGF and PDGF or in the combined presence of all three growth factors. […]
Finally, human primary myotubes were growth in culture and EVs and membrane-bound vesicles (MBVs) were harvested every 3 days. […] The vesicles were added to the culture of MSCs (adipose derived, AD; or chorionic placenta derived, CH) at a concentration of 10^8 per ml of culture and myogenic differentiation was again monitored with a MyoD reporter. […]

For HGF: hepatocyte growth factor, the MyoD reporter activity result is “less than a doubling of reporter activity”.

PDGF: the MyoD reporter activity result is reported as “less than a doubling of reporter activity”.
